Measurements reported in ChEMBL document CHEMBL1138159, “Enantiomer discrimination illustrated by the high resolution crystal structures of type 4 phosphodiesterase” (J Med Chem, 2006).

What was measured:
[1] = biological target: T1, 3',5'-cyclic-AMP phosphodiesterase 4A (Homo sapiens, UniProt P27815); experiment: Inhibition of PDE4A with respect to increase in cAMP concentration
[2] = biological target: 3',5'-cyclic-AMP phosphodiesterase 4C (Homo sapiens, UniProt Q08493); experiment: Inhibition of PDE4C
[3] = biological target: T1, 3',5'-cyclic-AMP phosphodiesterase 4A; experiment: Inhibition of PDE4A
[4] = biological target: 3',5'-cyclic-AMP phosphodiesterase 4B (Homo sapiens, UniProt Q07343); experiment: Inhibition of PDE4B
3',5'-cyclic-AMP phosphodiesterase 4B, sequence (Q07343 whole entry): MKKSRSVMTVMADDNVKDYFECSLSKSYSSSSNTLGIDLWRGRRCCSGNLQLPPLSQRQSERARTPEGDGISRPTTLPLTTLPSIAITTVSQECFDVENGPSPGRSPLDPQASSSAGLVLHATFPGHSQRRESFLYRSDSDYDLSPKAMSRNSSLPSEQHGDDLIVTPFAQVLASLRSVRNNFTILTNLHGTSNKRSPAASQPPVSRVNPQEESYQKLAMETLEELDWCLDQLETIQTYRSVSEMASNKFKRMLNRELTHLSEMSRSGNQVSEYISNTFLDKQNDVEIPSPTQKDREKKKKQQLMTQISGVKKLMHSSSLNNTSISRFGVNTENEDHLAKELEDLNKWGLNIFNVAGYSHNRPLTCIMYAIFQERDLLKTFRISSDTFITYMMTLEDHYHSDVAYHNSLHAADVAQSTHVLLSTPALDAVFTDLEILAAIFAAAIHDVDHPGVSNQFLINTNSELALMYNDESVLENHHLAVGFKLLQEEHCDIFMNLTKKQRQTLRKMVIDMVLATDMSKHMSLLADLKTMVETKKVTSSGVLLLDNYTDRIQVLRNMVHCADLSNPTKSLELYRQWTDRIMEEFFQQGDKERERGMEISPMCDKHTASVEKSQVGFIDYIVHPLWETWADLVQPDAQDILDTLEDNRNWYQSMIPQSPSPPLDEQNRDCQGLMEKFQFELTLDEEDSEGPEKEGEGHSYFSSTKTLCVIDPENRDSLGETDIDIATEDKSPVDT

T1 sequence (P27815 whole entry): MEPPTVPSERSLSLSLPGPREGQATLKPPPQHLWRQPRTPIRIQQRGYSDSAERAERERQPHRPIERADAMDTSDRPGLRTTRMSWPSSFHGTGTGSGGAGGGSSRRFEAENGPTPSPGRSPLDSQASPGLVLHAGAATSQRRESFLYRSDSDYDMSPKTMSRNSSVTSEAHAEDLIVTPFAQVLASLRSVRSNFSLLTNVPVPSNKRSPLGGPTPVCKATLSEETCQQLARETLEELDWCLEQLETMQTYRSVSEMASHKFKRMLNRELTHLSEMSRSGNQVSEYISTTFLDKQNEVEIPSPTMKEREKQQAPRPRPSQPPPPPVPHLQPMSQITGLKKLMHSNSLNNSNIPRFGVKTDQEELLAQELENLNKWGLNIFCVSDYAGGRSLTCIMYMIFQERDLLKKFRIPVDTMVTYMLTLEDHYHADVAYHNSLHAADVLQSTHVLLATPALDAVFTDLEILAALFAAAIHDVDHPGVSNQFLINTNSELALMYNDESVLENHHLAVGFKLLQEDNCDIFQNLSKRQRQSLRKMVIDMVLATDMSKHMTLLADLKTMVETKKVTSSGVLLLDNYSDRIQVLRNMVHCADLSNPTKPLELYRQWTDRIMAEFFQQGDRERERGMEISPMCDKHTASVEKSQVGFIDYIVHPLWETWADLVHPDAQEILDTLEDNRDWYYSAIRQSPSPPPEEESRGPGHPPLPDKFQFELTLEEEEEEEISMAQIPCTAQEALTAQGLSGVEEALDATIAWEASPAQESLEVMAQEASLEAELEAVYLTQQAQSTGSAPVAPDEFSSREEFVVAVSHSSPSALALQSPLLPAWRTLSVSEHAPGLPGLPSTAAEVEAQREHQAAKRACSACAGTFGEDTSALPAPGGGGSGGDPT
3',5'-cyclic-AMP phosphodiesterase 4C, sequence (Q08493 whole entry): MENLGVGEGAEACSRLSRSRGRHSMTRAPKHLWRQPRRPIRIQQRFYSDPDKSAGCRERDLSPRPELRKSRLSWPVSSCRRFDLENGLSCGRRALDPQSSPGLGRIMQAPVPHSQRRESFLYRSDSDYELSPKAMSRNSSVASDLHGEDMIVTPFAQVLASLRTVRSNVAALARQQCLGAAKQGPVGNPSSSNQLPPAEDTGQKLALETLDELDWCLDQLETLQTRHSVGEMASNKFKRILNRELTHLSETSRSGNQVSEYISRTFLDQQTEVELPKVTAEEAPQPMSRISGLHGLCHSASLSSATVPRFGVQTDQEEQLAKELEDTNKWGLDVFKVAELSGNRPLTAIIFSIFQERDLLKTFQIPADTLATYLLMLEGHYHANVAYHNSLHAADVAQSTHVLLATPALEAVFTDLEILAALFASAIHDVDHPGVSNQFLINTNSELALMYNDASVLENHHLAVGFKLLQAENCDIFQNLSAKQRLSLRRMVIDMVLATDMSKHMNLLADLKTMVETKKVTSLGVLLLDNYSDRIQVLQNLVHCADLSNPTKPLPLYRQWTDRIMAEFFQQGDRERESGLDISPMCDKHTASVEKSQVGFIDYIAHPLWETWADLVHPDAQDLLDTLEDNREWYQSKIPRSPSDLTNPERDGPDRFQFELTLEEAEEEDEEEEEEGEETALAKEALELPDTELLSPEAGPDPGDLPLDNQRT

SMILES | Ki [1] [nM] | IC50 [2] [nM] | IC50 [3] [nM] | IC50 [4] [nM]
[O-][n+]1cccc(C[C@@H](c2ccc(OC(F)F)c(OC3CC3)c2)c2cnc(C(O)(C(F)(F)F)C(F)(F)F)s2)c1 | 0.43 | – | – | –
[O-][n+]1cccc(C[C@H](c2ccc(OC(F)F)c(OC3CC3)c2)c2cnc(C(O)(C(F)(F)F)C(F)(F)F)s2)c1 | – | 135 | 56 | 40
